Assay: xn = mol fraction of the nth substance listed

C1CCCC1 + CC(C)O
101 kPa
Details	viscosity [mPa·s]
298.15 K, x1 = 0.0779	1.686
298.15 K, x1 = 0.1506	1.405
298.15 K, x1 = 0.1861	1.302
298.15 K, x1 = 0.2303	1.179
298.15 K, x1 = 0.26	1.129
298.15 K, x1 = 0.3112	1.009
298.15 K, x1 = 0.3879	0.8567
298.15 K, x1 = 0.4568	0.7573
298.15 K, x1 = 0.5489	0.6423
298.15 K, x1 = 0.6378	0.5548
298.15 K, x1 = 0.7196	0.5314
298.15 K, x1 = 0.8237	0.455
298.15 K, x1 = 0.9124	0.4265
308.15 K, x1 = 0.0365	1.373
308.15 K, x1 = 0.081	1.28
308.15 K, x1 = 0.1332	1.125
308.15 K, x1 = 0.1521	1.101
308.15 K, x1 = 0.1757	1.034
308.15 K, x1 = 0.1856	1.015
308.15 K, x1 = 0.2382	0.9575
308.15 K, x1 = 0.2694	0.9099
308.15 K, x1 = 0.3483	0.7902
308.15 K, x1 = 0.3863	0.7261
308.15 K, x1 = 0.4288	0.6806
308.15 K, x1 = 0.478	0.6312
308.15 K, x1 = 0.5296	0.5689
308.15 K, x1 = 0.5891	0.5186
308.15 K, x1 = 0.6269	0.4877
308.15 K, x1 = 0.6889	0.4468
308.15 K, x1 = 0.7	0.4437
308.15 K, x1 = 0.7248	0.4309
308.15 K, x1 = 0.7619	0.4179
308.15 K, x1 = 0.98	0.3745
308.15 K, x2 = 0.0108	0.3641

NCCO + CC(C)O
viscosity [mPa·s], 100 kPa
Details	x1 = 0.1	x1 = 0.2	x1 = 0.3	x1 = 0.4	x1 = 0.5	x1 = 0.6	x1 = 0.7	x1 = 0.8	x1 = 0.9
303.15 K	2.11	2.53	3.08	3.86	4.9	6.12	7.7	9.55	11.9
313.15 K	1.63	1.92	2.31	2.88	3.55	4.35	5.37	6.54	7.97
323.15 K	1.27	1.49	1.78	2.21	2.65	3.22	3.89	4.69	5.64

C1CCCC1 + CCC(C)(C)O
viscosity [mPa·s], 101 kPa
Details	298.15 K	308.15 K
x1 = 0.0429	2.979	1.779
x1 = 0.067	2.668	1.62
x1 = 0.1245	2.256	1.413
x1 = 0.2079	1.793	1.151
x1 = 0.3116	1.297	0.9115
x1 = 0.3957	1.073	0.7831
x1 = 0.5173	0.8412	0.6798
x1 = 0.5982	0.7558	0.5719
x1 = 0.683	0.6454	0.5099
x1 = 0.8095	0.508	0.4267
x1 = 0.8844	0.4827	0.4072
x1 = 0.9127	0.4379	0.3726
x1 = 0.944	0.4169	0.3547
